Values quoted from earlier work, collected in patent US20080166330A1, “Bacterial Compositions For Prevention Or Treatment Of Atherosclerotic Disorders” (priority 2004, published 2008).

System: anti-Chlamydia abzymes
Details: general statement of the description, no test details

CC[C@H]1OC(=O)[C@H](C)[C@@H](O[C@H]2C[C@@](C)(OC)[C@@H](O)[C@H](C)O2)[C@H](C)[C@@H](O[C@@H]2O[C@H](C)C[C@H](N(C)C)[C@H]2O)[C@](C)(O)C[C@@H](C)CN(C)[C@H](C)[C@@H](O)[C@]1(C)O [azithromycin]
inhibition of abzyme activity: inhibit abzyme activity
